Experimental data as given in ChEMBL document CHEMBL5537148, “Discovery of (quinazolin-6-yl)benzamide derivatives containing a 6,7-dimethoxy-1,2,3,4-tetrahydroisoquinoline moiety as potent reversal agents against P-glycoprotein-mediated multidrug resistance” (Eur J Med Chem, 2024).
Calls of active or inactive are those of the source. The rule behind the calls is not given here.

Key:
[1] = Reversal fold, ratio of adriamycin IC50 to adriamycin IC50 in presence of 0.1 uM test compound for reversal of adriamycin-mediated resistance in human MCF7/ADM cells by MTT method; format: functional
[2] = molecular target: ATP-dependent translocase ABCB1 (Homo sapiens, UniProt P08183); test: Inhibition of P-gp-mediated rhodamine-123 efflux in human MCF7/ADM cells assessed as increase in fluorescence intensity at 0.1 uM incubated for 6 hrs followed by Rh123 addition for 3 hrs by Fluorescence microplate reader analysis; format: cell-based; conditions: 9 h
MCF7/ADM [3] = test: Effect on P-gp expression in human MCF7/ADM cells at 0.1 uM by Western blot analysis; format: functional, cell-based
MCF7/ADM [4] = test: Induction of apoptosis in human MCF7/ADM cells incubated for 48 hrs in presence of adriamycin by Annexin V-FITC/PI staining based flow cytometric analysis; format: functional, cell-based; conditions: dose 0.1-1 µM
MCF7/ADM [5] = test: Inhibition of colony formation in human MCF7/ADM cells at 0.1 uM incubated for 15 days with fresh media replacement for every 2 days in the presence of adriamycin by crystal violet staining based imaging analysis; format: functional, cell-based; conditions: time 15.0 day
MCF7/ADM [6] = test: Inhibition of cell migration in human MCF7/ADM cells at 0.1 uM incubated for 24 to 48 hrs in the presence of adriamycin by Wound healing assay; format: functional, cell-based; conditions: time 24-48 hrs
MCF7/ADM [7] = test: Inhibition of cell invasion in human MCF7/ADM cells at 0.1 uM incubated for 24 hrs in the presence of adriamycin by Transwell assay; format: functional, cell-based
MCF7/ADM [8] = test: Antitumor activity against human MCF7/ADM cells xenografted in BABL/c mouse assessed as decrease in tumor volume at 2 mg/kg, ip administered once every 3 days for 25 days in the presence of adriamycin; format: functional, organism-based; conditions: time 25.0 day
MCF7/ADM [9] = test: Antitumor activity against human MCF7/ADM cells xenografted in BABL/c mouse assessed as decrease in tumor weight at 2 mg/kg, ip administered once every 3 days for 25 days in the presence of adriamycin; format: functional, organism-based; conditions: time 25.0 day
[10] = Antitumor activity against human MCF7/ADM cells xenografted in BABL/c mouse assessed as tumor growth inhibition at 2 mg/kg, ip administered once every 3 days for 25 days in the presence of adriamycin relative to control; format: functional; conditions: 600 h, time 25 day, read-out: TGI
MCF7/ADM [11] = test: Antitumor activity against human MCF7/ADM cells xenografted in BABL/c mouse assessed as increase in tumor degeneration at 2 mg/kg, ip administered once every 3 days for 25 days in the presence of adriamycin by H&E staining based analysis; format: functional, organism-based; conditions: time 25.0 day
MCF7/ADM [12] = test: Antitumor activity against human MCF7/ADM cells xenografted BABL/c mouse model assessed as increase in tumor necrosis at 2 mg/kg, ip administered once every 3 days for 25 days in the presence of adriamycin by H&E staining based analysis; format: functional, organism-based; conditions: time 25.0 day
[13] = Toxicity in Balb/c mouse xenografted with human MCF7/ADR cells assessed as liver cell necrosis at 2 mg/kg, ip administered once every 3 days for 25 days in presence of adriamycin by H&E staining based analysis; format: organism-based, NCI/ADR-RES; conditions: in vivo, 600 h, time 25 day
[14] = Toxicity in Balb/c mouse xenografted with human MCF7/ADR cells assessed as kidney cell necrosis at 2 mg/kg, ip administered once every 3 days for 25 days in presence of adriamycin by H&E staining based analysis; format: organism-based, NCI/ADR-RES; conditions: in vivo, 600 h, time 25 day
[15] = Toxicity in Balb/c mouse xenografted with human MCF7/ADR cells assessed as liver cell necrosis at 10 mg/kg, ip administered once every 3 days for 25 days by H&E staining based analysis; format: organism-based, NCI/ADR-RES; conditions: in vivo, 600 h, time 25 day
[16] = Toxicity in Balb/c mouse xenografted with human MCF7/ADR cells assessed as kidney cell necrosis at 10 mg/kg, ip administered once every 3 days for 25 days by H&E staining based analysis; format: organism-based, NCI/ADR-RES; conditions: in vivo, 600 h, time 25 day

Sequence of ATP-dependent translocase ABCB1 (P08183 whole entry): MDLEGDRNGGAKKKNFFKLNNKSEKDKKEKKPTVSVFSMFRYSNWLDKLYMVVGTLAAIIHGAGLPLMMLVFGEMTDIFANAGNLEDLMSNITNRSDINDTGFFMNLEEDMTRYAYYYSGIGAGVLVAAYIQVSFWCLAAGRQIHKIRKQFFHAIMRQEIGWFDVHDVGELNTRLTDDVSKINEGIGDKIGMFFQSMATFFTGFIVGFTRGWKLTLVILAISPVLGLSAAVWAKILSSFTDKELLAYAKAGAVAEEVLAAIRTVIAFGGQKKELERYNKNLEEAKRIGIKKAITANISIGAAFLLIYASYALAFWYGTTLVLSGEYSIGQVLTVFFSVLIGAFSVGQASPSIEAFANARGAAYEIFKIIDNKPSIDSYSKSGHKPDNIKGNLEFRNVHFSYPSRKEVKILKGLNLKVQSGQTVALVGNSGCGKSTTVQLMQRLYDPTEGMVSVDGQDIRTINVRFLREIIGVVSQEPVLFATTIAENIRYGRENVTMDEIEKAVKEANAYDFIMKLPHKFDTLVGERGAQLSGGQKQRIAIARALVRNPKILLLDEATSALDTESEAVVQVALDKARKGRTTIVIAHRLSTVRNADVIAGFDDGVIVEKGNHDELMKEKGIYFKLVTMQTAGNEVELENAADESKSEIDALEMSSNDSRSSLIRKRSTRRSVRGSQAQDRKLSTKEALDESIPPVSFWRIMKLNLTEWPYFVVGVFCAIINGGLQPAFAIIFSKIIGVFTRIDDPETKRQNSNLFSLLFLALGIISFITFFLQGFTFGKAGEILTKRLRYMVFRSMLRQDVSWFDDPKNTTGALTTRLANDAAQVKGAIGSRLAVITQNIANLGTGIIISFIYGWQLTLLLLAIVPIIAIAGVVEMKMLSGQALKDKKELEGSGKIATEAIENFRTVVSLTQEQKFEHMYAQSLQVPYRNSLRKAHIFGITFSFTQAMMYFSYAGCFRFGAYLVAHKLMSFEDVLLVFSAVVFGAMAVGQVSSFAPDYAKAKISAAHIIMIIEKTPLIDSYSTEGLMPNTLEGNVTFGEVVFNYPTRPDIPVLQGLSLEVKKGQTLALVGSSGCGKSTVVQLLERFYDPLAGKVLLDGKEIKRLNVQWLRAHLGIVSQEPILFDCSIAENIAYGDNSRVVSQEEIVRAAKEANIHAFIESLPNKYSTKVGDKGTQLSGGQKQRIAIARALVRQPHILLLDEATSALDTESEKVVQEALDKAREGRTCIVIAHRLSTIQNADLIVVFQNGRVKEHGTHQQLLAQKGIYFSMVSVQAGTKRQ

| Structure (SMILES) | Ratio IC50 [1] | further results |
| --- | --- | --- |
| COC(=O)c1ccc(Nc2ncnc3ccc(-c4ccc(C(=O)NCCN5CCc6cc(OC)c(OC)cc6C5)cc4)cc23)cc1 | 10.1 | – |
| COc1cc2c(cc1OC)CN(CCNC(=O)c1ccc(-c3ccc4ncnc(Nc5ccccc5F)c4c3)cc1)CC2 | 2.4 | – |
| COc1ccc(Nc2ncnc3ccc(-c4ccc(C(=O)NCCN5CCc6cc(OC)c(OC)cc6C5)cc4)cc23)cc1F | 25.2 | – |
| COc1cc2c(cc1OC)CN(CCNC(=O)c1ccc(-c3ccc4ncnc(Nc5ccc(F)cc5)c4c3)cc1)CC2 | 14.1 | – |
| COc1cc2c(cc1OC)CN(CCNC(=O)c1ccc(-c3ccc4ncnc(Nc5ccccc5)c4c3)cc1)CC2 | 3.5 | – |
| COc1ccccc1Nc1ncnc2ccc(-c3ccc(C(=O)NCCN4CCc5cc(OC)c(OC)cc5C4)cc3)cc12 | 83.4 | inhibition (INH) [2]: Active; Activity (MCF7/ADM [3]): inactive; Activity (MCF7/ADM [4]): Dose-Dependent Effect; inhibition (MCF7/ADM [5]): Active; inhibition (MCF7/ADM [6]): Active; inhibition (MCF7/ADM [7]): Active; Activity (MCF7/ADM [8]): Active; Activity (MCF7/ADM [9]): Active; inhibition in vivo at 2 mg/kg [10]: 69.7%; Activity (MCF7/ADM [11]): Active; Activity (MCF7/ADM [12]): Active; Activity [13]: Non-Toxic; Activity [14]: Non-Toxic |
| COc1cc2c(cc1OC)CN(CCNC(=O)c1ccc(-c3ccc4ncnc(Nc5ccccc5Br)c4c3)cc1)CC2 | 16.6 | – |
| COc1cc2c(cc1OC)CN(CCc1ccc(NC(=O)c3cc(OC)c(OC)cc3NC(=O)c3cnc4ccccc4c3)cc1)CC2 [TARIQUIDAR] | 11 | inhibition (INH) [2]: Active; inhibition (MCF7/ADM [6]): Active; inhibition (MCF7/ADM [7]): Active; Activity (MCF7/ADM [8]): Active; Activity (MCF7/ADM [9]): Active; inhibition in vivo at 2 mg/kg [10]: 49.4%; Activity [13]: Non-Toxic; Activity [14]: Non-Toxic |
| COc1cc2c(cc1OC)CN(CCNC(=O)c1ccc(-c3ccc4ncnc(NCc5cccc(F)c5)c4c3)cc1)CC2 | 22.2 | – |
| COc1cc2c(cc1OC)CN(CCNC(=O)c1ccc(-c3ccc4ncnc(Nc5ccccc5Cl)c4c3)cc1)CC2 | 13.3 | – |
| COc1cc2c(cc1OC)CN(CCNC(=O)c1ccc(-c3ccc4ncnc(NCc5cccc(Cl)c5)c4c3)cc1)CC2 | 1.5 | – |
| COc1cc2c(cc1OC)CN(CCNC(=O)c1ccc(-c3ccc4ncnc(Nc5cccc(C)c5)c4c3)cc1)CC2 | 24.3 | – |
| COc1cc2c(cc1OC)CN(CCNC(=O)c1ccc(-c3ccc4ncnc(Nc5ccc(C)cc5)c4c3)cc1)CC2 | 3.1 | – |
| COc1cc2c(cc1OC)CN(CCNC(=O)c1ccc(-c3ccc4ncnc(Nc5ccccc5C)c4c3)cc1)CC2 | 41.3 | – |
| COc1cccc2c1C(=O)c1c(O)c3c(c(O)c1C2=O)C[C@@](O)(C(=O)CO)C[C@@H]3O[C@H]1C[C@H](N)[C@H](O)[C@H](C)O1.Cl [DOXORUBICIN HYDROCHLORIDE] | – | Activity [15]: Non-Toxic; Activity [16]: Non-Toxic |
| COc1cc2c(cc1OC)CN(CCNC(=O)c1ccc(-c3ccc4ncnc(NCc5ccccc5)c4c3)cc1)CC2 | 3.3 | – |
| COc1cc2c(cc1OC)CN(CCNC(=O)c1ccc(-c3ccc4ncnc(Nc5ccc(Br)cc5)c4c3)cc1)CC2 | 16.3 | – |
| COc1cc2c(cc1OC)CN(CCNC(=O)c1ccc(-c3ccc4ncnc(Nc5cccc(Cl)c5)c4c3)cc1)CC2 | 11.6 | – |
| COc1cc2c(cc1OC)CN(CCNC(=O)c1ccc(-c3ccc4ncnc(Nc5cccc(Br)c5)c4c3)cc1)CC2 | 3.4 | – |
| COc1cccc(Nc2ncnc3ccc(-c4ccc(C(=O)NCCN5CCc6cc(OC)c(OC)cc6C5)cc4)cc23)c1 | 1.3 | – |
| COc1cc2c(cc1OC)CN(CCNC(=O)c1ccc(-c3ccc4ncnc(NCc5ccccc5F)c4c3)cc1)CC2 | 7.2 | – |
| COc1cc2c(cc1OC)CN(CCNC(=O)c1ccc(-c3ccc4ncnc(NCc5cccc(Br)c5)c4c3)cc1)CC2 | 1.2 | – |
| COc1cc2c(cc1OC)CN(CCNC(=O)c1ccc(-c3ccc4ncnc(NCc5ccc(F)cc5)c4c3)cc1)CC2 | 12.1 | – |
| COc1cc2c(cc1OC)CN(CCNC(=O)c1ccc(-c3ccc4ncnc(Nc5cccc(C#N)c5)c4c3)cc1)CC2 | 2.5 | – |
| COC(=O)c1cccc(Nc2ncnc3ccc(-c4ccc(C(=O)NCCN5CCc6cc(OC)c(OC)cc6C5)cc4)cc23)c1 | 2.4 | – |
| COc1cc2c(cc1OC)CN(CCNC(=O)c1ccc(-c3ccc4ncnc(Nc5ccc(Cl)cc5)c4c3)cc1)CC2 | 4.3 | – |
| COc1cc2c(cc1OC)CN(CCNC(=O)c1ccc(-c3ccc4ncnc(NCc5ccc(Cl)cc5)c4c3)cc1)CC2 | 9.3 | – |
| COc1cc2c(cc1OC)CN(CCNC(=O)c1ccc(-c3ccc4ncnc(Nc5cccc(F)c5)c4c3)cc1)CC2 | 5.3 | – |
